Reference: patent US20090221567A1, “MUSCARINIC RECEPTOR AGONISTS, COMPOSITIONS, METHODS OF TREATMENT THEREOF, AND PROCESSES FOR PREPARATION THEREOF 177” (ASTRAZENECA AB, priority 2008, published 2009)

Key:
[1] = target: T1, human M2 receptor (human Muscarinic receptor subtype 2) (Homo sapiens, UniProt P08172); test: hM2 receptor GTPγS binding; type: biochemical; conditions: CHO membranes, [35S]GTPγS binding
T1 construct: purchased Perkin-Elmer RBHM2M; host or cells: membranes from CHO cells expressing the cloned receptor
T1 sequence (P08172 1-466): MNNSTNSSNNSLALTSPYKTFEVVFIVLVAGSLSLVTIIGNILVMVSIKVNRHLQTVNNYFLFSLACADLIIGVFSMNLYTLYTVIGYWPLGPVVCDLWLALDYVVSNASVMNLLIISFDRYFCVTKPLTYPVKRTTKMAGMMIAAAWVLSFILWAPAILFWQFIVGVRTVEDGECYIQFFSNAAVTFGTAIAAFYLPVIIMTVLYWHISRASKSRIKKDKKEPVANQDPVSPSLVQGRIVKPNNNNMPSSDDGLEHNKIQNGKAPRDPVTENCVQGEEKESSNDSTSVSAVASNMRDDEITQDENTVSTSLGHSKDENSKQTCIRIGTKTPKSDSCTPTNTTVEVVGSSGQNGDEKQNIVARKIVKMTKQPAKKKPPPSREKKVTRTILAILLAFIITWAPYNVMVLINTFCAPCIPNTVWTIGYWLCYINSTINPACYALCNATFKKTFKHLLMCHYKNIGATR
Experimental: Membranes produced from Chinese hamster ovary cells (CHO) expressing the cloned human M2 receptor (human Muscarinic receptor subtype 2, gene bank access NM_000739), are obtained from Perkin-Elmer (RBHM2M). The membranes are thawed at 37° C., passed 3 times through a 23-gauge blunt-end needle, diluted in the GTPγS binding buffer (50 mM Hepes, 20 mM NaOH, 100 mM NaCl, 1 mM EDTA, 5 mM MgCl2, pH 7.4, 100 μM DTT). The EC50, IC50 and Emax of the compounds of the invention are evaluated from 10-point dose-response curves (three fold concentration range) done in 60 μl in 384-well non-specific binding surface plate (Corning). Ten microliters from the dose-response curves plate (5× concentration) are transferred to another 384 well plate containing 25 μl of the following: 5 μg of hM2 membranes, 500 μg of Flashblue beads (Perkin-Elmer) and GDP 25 μM. An additional 15 μl containing 3.3× (60,000 dpm) of GTPγ^35S (0.4 nM final) are added to the wells resulting in a total well volume of 50 μl. Basal and maximal stimulated [^35S]GTPγS binding are determined in absence and presence of 30 μM final of acetylcholine agonist. The membranes/beads mix are pre-incubated for 15 minutes at room temperature with 25 μM GDP prior to distribution in plates (12.5 μM final). The reversal of acetylcholine-induced stimulation (2 μM final) of [^35S]GTPγS binding is used to assay the antagonist properties (IC50) of the compounds. The plates are incubated for 60 minutes at room temperature then centrifuged at 400 rpm for 5 minutes. The radioactivity (cpm) is counted in a Trilux (Perkin-Elmer).
Values of EC50, IC50 and Emax are obtained using sigmoidal fits of a non-linear curve-fitting program (XLfit version 4.2.2 Excel add-in version 4.2.2 build 18 math 1Q version 2.1.2 build 18) of percent stimulated [^35S]GTPγS binding vs. log(molar ligand). All pEC50 and pIC50 values are reported as arithmetic means±standard error of mean of ‘n’ independent experiments.

[2] = target: T2, hM5 (human Muscarinic receptor subtype 5) (Homo sapiens, UniProt P08912); test: Human M5 calcium mobilization FLIPR assay; type: cell-based; conditions: receptor expressed in CHO cells, intracellular Ca2+ release
T2 construct: expressed in transfected cells; host or cells: CHO cells (Chinese hamster ovary cells, ATCC)
T2 sequence (P08912 1-532): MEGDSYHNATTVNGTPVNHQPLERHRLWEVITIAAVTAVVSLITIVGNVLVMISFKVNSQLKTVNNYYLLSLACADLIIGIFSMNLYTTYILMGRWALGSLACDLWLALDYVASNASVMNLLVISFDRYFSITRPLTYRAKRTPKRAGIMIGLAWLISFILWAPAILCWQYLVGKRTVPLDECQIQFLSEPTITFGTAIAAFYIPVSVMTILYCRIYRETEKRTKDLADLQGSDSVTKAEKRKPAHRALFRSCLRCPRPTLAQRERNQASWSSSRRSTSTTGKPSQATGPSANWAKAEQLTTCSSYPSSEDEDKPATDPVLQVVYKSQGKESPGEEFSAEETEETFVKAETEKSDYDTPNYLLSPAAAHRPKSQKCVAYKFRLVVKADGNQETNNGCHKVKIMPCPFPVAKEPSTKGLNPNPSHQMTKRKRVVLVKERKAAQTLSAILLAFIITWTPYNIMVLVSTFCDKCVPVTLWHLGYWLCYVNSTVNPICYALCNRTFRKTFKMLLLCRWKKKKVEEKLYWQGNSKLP
Experimental: The compound activity in the present invention (EC50 or IC50) is measured using a 384 plate-based imaging assay that monitors drug induced intracellular Ca^2+ release in whole cells. Activation of hM1 (human Muscarinic receptor subtype 1, gene bank access NM_000738), rM1 (rat Muscarinic receptor subtype 1, gene bank access NM_080773), hM3 (human Muscarinic receptor subtype 3, gene bank access NM_000740NM_000740) and hM5 (human Muscarinic receptor subtype 5, gene bank access NM_0121258), receptors expressed in CHO cells (Chinese hamster ovary cells, ATCC) is quantified in a Molecular Devices FLIPR IITM instrument as an increase in fluorescent signal. Inhibition of hM3 and hM5 by compounds is determined by the decrease in fluorescent signal in response to 2 nM acetylcholine activation.
Prior to experiment, the cell culture medium is removed from the plates by inversion. […] Plates are incubated at 37° C. for 60 minutes prior to start the experiment. The incubation is terminated by washing the cells four times in assay buffer, leaving a residual 25 μl buffer per well. Cell plates are then transferred to the FLIPR, ready for compound additions.
The day of experiment, acetylcholine and compounds are diluted in assay buffer in three-fold concentration range (10 points serial dilution) for addition by FLIPR instrument. For all calcium assays, a baseline reading is taken for 10 seconds followed by the addition of 12.5 μl of compounds, resulting in a total well volume of 37.5 μl. Data is collected every second for 60 pictures and then every 6 seconds for 20 pictures prior to the addition of agonist. For hM3 and hM5, before agonist addition, a second baseline reading is taken for 10 seconds followed by the addition of 12.5 μl of agonist or buffer, producing a final volume of 50 μl. After agonist stimulation, the FLIPR continues to collect data every second for 60 pictures and then every 6 seconds for 20 pictures. The fluorescence emission is read using filter 1 (emission 510-570 nm) by the FLIPR on board CCD camera.
Calcium mobilization output data are calculated as the maximal relative fluorescence unit (RFU) minus the minimal value for both compound and agonist reading frame (except for hM1 and rM1 using only the maximal RFU). Data are analyzed using sigmoidal fits of a non-linear curve-fitting program (XLfit version 4.2.2 Excel add-in version 4.2.2 build 18 math 1Q version 2.1.2 build 18). All pEC50 and pIC50 values are reported as arithmetic means±standard error of mean of ‘n’ independent experiments.

| EC50 [1] [µM] | EC50 [2] [µM] | Structure (SMILES) |
| --- | --- | --- |
| 3.7 | > 40 | CCOC(=O)N1CCC(C)(N2CCC(N3C(=O)CO[C@H]4CCCC[C@@H]43)CC2)C1 (single isomer, unassigned) [Example 18] |
| > 40 | > 40 | CCOC(=O)N1CCC(C)(N2CCC(N3C(=O)CO[C@H]4CCCC[C@@H]43)CC2)C1 (single isomer, unassigned) [Example 19] |
| 0.38 |  | CCOC(=O)N1CCC(N2CCC(N3C(=O)NC[C@H]4CCCC[C@@H]43)CC2)CC1 [Example 1, Ethyl 4-[4-[(4aR,8aS)-2-oxo-3,4,4a,5,6,7,8,8a-octahydroquinazolin-1-y]-1-piperidyl]piperidine-1-carboxylate] |
| > 1.2 | > 49.2 | CC(C)OC(=O)N1CCC(N2CCC(N3C(=O)NC[C@H]4CCCC[C@@H]43)CC2)CC1 [Example 2, Propan-2-yl 4-[4-[(4aR,8aS)-2-oxo-3,4,4a,5,6,7,8,8a-octahydroquinazolin-1-yl]-1-piperidyl]piperidine-1-carboxylate] |
| > 12 | > 31.1 | O=C(C1CC1)N1CCC(N2CCC(N3C(=O)NC[C@H]4CCCC[C@@H]43)CC2)CC1 [Example 3, (4aR,8aS)-1-[1-[1-(cyclopropanecarbonyl)-4-piperidyl]-4-piperidyl]-3,4,4a,5,6,7,8,8a-octahydroquinazolin-2-one] |
| > 30 | > 49.2 | Cc1ccccc1C(=O)N1CCC(N2CCC(N3C(=O)NC[C@H]4CCCC[C@@H]43)CC2)CC1 [Example 4, (4aR,8aS)-1-[1-[1-(2-methylbenzoyl)-4-piperidyl]-4-piperidyl]-3,4,4a,5,6,7,8,8a-octahydroquinazolin-2-one] |
| > 30 | > 40 | CC(C)OC(=O)N1CCC(N2CCC(N3C(=O)N(C)C[C@H]4CCCC[C@@H]43)CC2)CC1 [Example 6, Propan-2-yl 4-[4-[(4aR,8aS)-3-methyl-2-oxo-4a,5,6,7,8,8a-hexahydro-4H-quinazolin-1-yl]-1-piperidyl]piperidine-1-carboxylate] |
| 0.07 | 0.168 | CCOC(=O)N1CCC(C)(N2CCC(N3C(=O)NC[C@H]4CCCC[C@@H]43)CC2)CC1 [Example 7, Ethyl 4-[4-[(4aR,8aS)-2-oxo-3,4,4a,5,6,7,8,8a-octahydroquinazolin-1-yl]-1-piperidyl]-4-methyl-piperidine-1-carboxylate] |
| > 30 | > 40 | CC(C)OC(=O)N1CCC(C)(N2CCC(N3C(=O)NC[C@H]4CCCC[C@@H]43)CC2)CC1 [Example 8, Propan-2-yl 4-[4-[(4aR,8aS)-2-oxo-3,4,4a,5,6,7,8,8a-octahydroquinazolin-1-yl]-1-piperidyl]-4-methyl-piperidine-1-carboxylate] |
| 2.5 | 0.0977 | CCOC(=O)N1CCC(N2CCC(N3C(=O)CO[C@H]4CCCC[C@@H]43)CC2)CC1 [Example 9, Ethyl 4-[4-[(1S,6S)-9-oxo-7-oxa-10-azabicyclo[4.4.0]dec-10-yl]-1-piperidyl]piperidine-1-carboxylate] |
| > 6.6 | > 40 | CC(C)OC(=O)N1CCC(N2CCC(N3C(=O)CO[C@H]4CCCC[C@@H]43)CC2)CC1 [Example 10, Propan-2-yl 4-[4-[(1S,6S)-9-oxo-7-oxa-10-azabicyclo[4.4.0]dec-10-yl]-1-piperidyl]piperidine-1-carboxylate] |
| > 30 | > 40 | Cc1ccccc1C(=O)N1CCC(N2CCC(N3C(=O)CO[C@H]4CCCC[C@@H]43)CC2)CC1 [Example 11, (1S,6S)-10-[1-[1-(2-methylbenzoyl)-4-piperidyl]-4-piperidyl]-7-oxa-10-azabicyclo[4.4.0]decan-9-one] |
| > 30 | > 40 | Cn1cccc1C(=O)N1CCC(N2CCC(N3C(=O)CO[C@H]4CCCC[C@@H]43)CC2)CC1 [Example 12, (1S,6S)-10-[1-[1-(1-methylpyrrole-2-carbonyl)-4-piperidyl]-4-piperidyl]-7-oxa-10-azabicyclo[4.4.0]decan-9-one] |
| > 30 | > 40 | CCOC(=O)N1CC[C@H](N2CCC(N3C(=O)CO[C@H]4CCCC[C@@H]43)CC2)C1 [Example 13, Ethyl (3S)-3-[4-[(1S,6S)-9-oxo-7-oxa-10-azabicyclo[4.4.0]dec-10-yl]-1-piperidyl]pyrrolidine-1-carboxylate] |
| > 30 | > 40 | CC(C)OC(=O)N1CCC(N2CCC(N3C(=O)CO[C@@H]4CCCC[C@H]43)CC2)CC1 [Example 14, Propan-2-yl 4-[4-[(1R,6R)-9-oxo-7-oxa-10-azabicyclo[4.4.0]dec-10yl]-1-piperidyl]piperidine-1-carboxylate] |
| > 12 | > 40 | CCOC(=O)N1CCC(N2CCC(N3C(=O)OC[C@H]4CCCC[C@@H]43)CC2)CC1 [Example 15, Ethyl 4-[4-[(1S,6S)-9-oxo-8-oxa-10-azabicyclo[4.4.0]dec-10-yl]-1-piperidyl]piperidine-1-carboxylate] |
